One assay concerns Zymoseptoria tritici. Nature of the assay: Leaf blotch of wheat (SEPTTR), disease control on wheat seedlings. Format: in vivo. To be noted: for pest or weed control at 100 ppm: high volume application at 100 ppm; for pest or weed control at 121.5 g/ha: low volume application at 121.5 g/H. On the procedure:
Technical grades of materials were dissolved in acetone, which were then mixed with nine volumes of water containing 110 ppm Triton X-100. The fungicide solutions were applied onto wheat seedlings using an automated booth sprayer to run-off. All sprayed plants were allowed to air dry prior to further handling. All fungicides were evaluated using the aforementioned method for their activity vs. all target diseases, unless stated otherwise. Wheat leaf blotch and brown rust activity were also evaluated using track spray applications, in which case the fungicides were formulated as EC formulations, containing 0.1% Trycol 5941 in the spray solutions. Wheat plants (variety Yuma) were grown from seed in a greenhouse in 50% mineral soil/50% soil-less Metro mix until the first leaf was fully emerged, with 7-10 seedlings per pot. These plants were inoculated with an aqueous spore suspension of Zymoseptoria tritici either prior to or after fungicide treatments. After inoculation the plants were kept in 100% relative humidity (one day in a dark dew chamber followed by two to three days in a lighted dew chamber at 20° C.) to permit spores to germinate and infect the leaf. The plants were then transferred to a greenhouse set at 20° C. for disease to develop. When disease symptoms were fully expressed on the 1st leaves of untreated plants, infection levels were assessed on a scale of 0 to 100 percent disease severity. Percent disease control was calculated using the ratio of disease severity on treated plants relative to untreated plants.

The test system of another assay is Puccinia triticina. Nature of the assay: Wheat brown rust (PUCCRT), disease control on wheat seedlings. To be noted: for pest or weed control at 100 ppm: high volume application at 100 ppm; for pest or weed control at 121.5 g/ha: low volume application at 121.5 g/H. The assay is classed as in vivo. On the procedure: Technical grades of materials were dissolved in acetone, which were then mixed with nine volumes of water containing 110 ppm Triton X-100. The fungicide solutions were applied onto wheat seedlings using an automated booth sprayer to run-off. All sprayed plants were allowed to air dry prior to further handling. All fungicides were evaluated using the aforementioned method for their activity vs. all target diseases, unless stated otherwise. Wheat leaf blotch and brown rust activity were also evaluated using track spray applications, in which case the fungicides were formulated as EC formulations, containing 0.1% Trycol 5941 in the spray solutions. Wheat plants (variety Yuma) were grown from seed in a greenhouse in 50% mineral soil/50% soil-less Metro mix until the first leaf was fully emerged, with 7-10 seedlings per pot. These plants were inoculated with an aqueous spore suspension of Puccinia triticina either prior to or after fungicide treatments. After inoculation the plants were kept in a dark dew room at 22° C. with 100% relative humidity overnight to permit spores to germinate and infect the leaf. The plants were then transferred to a greenhouse set at 24° C. for disease to develop. Fungicide formulation, application and disease assessment followed the procedures as described in the Example A.

Setting [1] is: 24 h, 1 Day Protectant, read-out: SEPTTR disease control, 1DP, HV activity.
The mark [2] stands for this setting: 72 h, 3 Day Curative, read-out: SEPTTR disease control, 3DC, HV activity.
The mark [3] stands for this setting: 24 h, 1 Day Protectant, read-out: PUCCRT disease control, 1DP, HV activity.
[4] abbreviates: 72 h, 3 Day Curative, read-out: PUCCRT disease control, 3DC, HV activity.
The mark [5] stands for this setting: 24 h, 1 Day Protectant, read-out: SEPTTR disease control, 1DP, LV activity.
Where [6] appears, read: 72 h, 3 Day Curative, read-out: SEPTTR disease control, 3DC, LV activity.
Where [7] appears, read: 24 h, 1 Day Protectant, read-out: PUCCRT disease control, 1DP, LV activity.
Where [8] appears, read: 72 h, 3 Day Curative, read-out: PUCCRT disease control, 3DC, LV activity.

Read-outs that look alike come from different tables or passages of the source. Where only a bound is given, the exact number is not on record here.

The values below come from patent US20180186742A1, “PICOLINAMIDES AS FUNGICIDES” (Dow AgroSciences LLC, priority 2017, published 2018).

With `COc1ccnc(C(=O)N[C@@H](C)C(=O)O[C@@H](C)[C@H](c2ccc(F)cc2F)C(C)C)c1O` [Compound 328], the pest or weed control at 100 ppm in the assay on Zymoseptoria tritici (setting [1]), in the assay with Zymoseptoria tritici (setting [2]), with Puccinia triticina (setting [3]) and in the assay with Puccinia triticina (setting [4]) was more than 80% each time.

Take `COc1ccnc(C(=O)N[C@@H](C)C(=O)O[C@@H](C)[C@@H](c2ccccc2)C(C)C)c1O` [Compound 105]: the pest or weed control at 100 ppm in the assay with Zymoseptoria tritici (setting [1]) is less than 80%; in the assay on Zymoseptoria tritici (setting [2]), less than 80%; with Puccinia triticina (setting [3]), more than 80%; with Puccinia triticina (setting [4]), less than 0%.

For the compound `COc1ccnc(C(=O)N[C@@H](C)C(=O)O[C@@H](C)[C@H](c2cc(C)ccc2C)C(C)C)c1O` [Compound 321], the pest or weed control at 100 ppm with Zymoseptoria tritici (setting [1]) is less than 80%; in the assay on Zymoseptoria tritici (setting [2]) it was less than 80%; in the assay on Puccinia triticina (setting [3]) it was more than 80%; in the assay with Puccinia triticina (setting [4]), more than 80%.

Regarding `COc1ccnc(C(=O)N[C@@H](C)C(=O)O[C@H](C)[C@H](c2ccc(F)cc2C)C(C)C)c1O` [Compound 130], the pest or weed control at 100 ppm was less than 80% with Zymoseptoria tritici (setting [1]), less than 80% in the assay on Zymoseptoria tritici (setting [2]), more than 80% in the assay on Puccinia triticina (setting [3]) and less than 80% in the assay on Puccinia triticina (setting [4]).

On to `COc1ccnc(C(=O)N[C@@H](C)C(=O)O[C@@H](C)[C@@H](c2ccc(F)cc2C)C2CCC2)c1O` [Compound 121], for which the pest or weed control at 100 ppm in the assay with Zymoseptoria tritici (setting [1]) is less than 80%; with Zymoseptoria tritici (setting [2]) it was more than 80%; with Puccinia triticina (setting [3]), more than 80%; in the assay with Puccinia triticina (setting [4]), less than 80%.

Take `COc1cc(F)ccc1[C@@H](C1CCCC1)[C@H](C)OC(=O)[C@H](C)NC(=O)c1nccc(OC)c1O` [Compound 140]: the pest or weed control at 100 ppm with Zymoseptoria tritici (setting [1]) is less than 0%; with Zymoseptoria tritici (setting [2]) it was less than 80%; in the assay with Puccinia triticina (setting [3]), more than 80%; in the assay on Puccinia triticina (setting [4]) it was more than 80%.

With `COc1ccccc1[C@H](C(C)C)[C@H](C)OC(=O)[C@H](C)NC(=O)c1nccc(OC)c1OC(C)=O` [Compound 261], the pest or weed control at 121.5 g/ha in the assay with Zymoseptoria tritici (setting [5]) was less than 80%; in the assay on Zymoseptoria tritici (setting [6]), less than 80%; in the assay on Puccinia triticina (setting [7]) it was more than 80%; with Puccinia triticina (setting [8]) it was less than 80%.

Regarding `COc1cc(F)ccc1[C@@H](C1CCCCC1)[C@H](C)OC(=O)[C@H](C)NC(=O)c1nccc(OC)c1O` [Compound 139], the pest or weed control at 100 ppm is more than 80% in the assay on Zymoseptoria tritici (setting [1]), less than 0% in the assay on Zymoseptoria tritici (setting [2]), more than 80% in the assay with Puccinia triticina (setting [3]) and less than 80% in the assay with Puccinia triticina (setting [4]).

For `COc1ccnc(C(=S)N[C@@H](C)C(=O)OC(C)[C@H](c2ccccc2)C2CCCC2)c1OC(C)=O` (some centres unmarked) [Compound 176], the pest or weed control at 121.5 g/ha in the assay on Zymoseptoria tritici (setting [5]) is more than 80%; in the assay with Zymoseptoria tritici (setting [6]), more than 80%; with Puccinia triticina (setting [7]), more than 80%; with Puccinia triticina (setting [8]), less than 80%.

For the compound `COc1ccnc(C(=S)N[C@@H](C)C(=O)O[C@@H](C)[C@H](c2ccc(F)cc2C)C(C)C)c1O` [Compound 136], the pest or weed control at 100 ppm with Zymoseptoria tritici (setting [1]), with Zymoseptoria tritici (setting [2]), with Puccinia triticina (setting [3]) and with Puccinia triticina (setting [4]) was more than 80% each time.

Regarding `COc1cc(C)ccc1[C@H](C(C)C)[C@H](C)OC(=O)[C@H](C)NC(=O)c1nccc(OC)c1OC(C)=O` [Compound 253], the figures for the pest or weed control at 121.5 g/ha with Zymoseptoria tritici (setting [5]), with Puccinia triticina (setting [7]) and in the assay with Puccinia triticina (setting [8]) were less than 80%, more than 80% and more than 80%, respectively.

As for `COc1ccnc(C(=O)N[C@@H](C)C(=O)O[C@H](C)[C@H](c2ccc(F)cc2C)C2CCCCC2)c1O` [Compound 129], the pest or weed control at 100 ppm is more than 80% in the assay on Zymoseptoria tritici (setting [1]), less than 80% in the assay on Zymoseptoria tritici (setting [2]), more than 80% in the assay with Puccinia triticina (setting [3]) and less than 0% with Puccinia triticina (setting [4]).

In the case of `COc1ccnc(C(=O)N[C@@H](C)C(=O)O[C@@H](C)[C@H](c2ccc(F)cc2)C2CC2)c1OC(C)=O` [Compound 170], the pest or weed control at 121.5 g/ha in the assay with Zymoseptoria tritici (setting [5]), in the assay with Zymoseptoria tritici (setting [6]), in the assay with Puccinia triticina (setting [7]) and with Puccinia triticina (setting [8]) was more than 80% in each case.

Turning to `COc1ccnc(C(=O)N[C@@H](C)C(=O)O[C@@H](C)[C@@H](c2ccc(C)cc2F)C(C)C)c1O` [Compound 332], the pest or weed control at 100 ppm in the assay with Zymoseptoria tritici (setting [1]), with Zymoseptoria tritici (setting [2]), in the assay on Puccinia triticina (setting [3]) and in the assay on Puccinia triticina (setting [4]) was less than 80% throughout.

In the case of `COc1ccnc(C(=O)N[C@@H](C)C(=O)O[C@@H](C)[C@H](c2cc(F)ccc2C)C(C)C)c1O` [Compound 324], the pest or weed control at 100 ppm is less than 80% with Zymoseptoria tritici (setting [1]), less than 80% with Zymoseptoria tritici (setting [2]), more than 80% with Puccinia triticina (setting [3]) and more than 80% in the assay with Puccinia triticina (setting [4]).

As for `COc1ccnc(C(=O)N[C@@H](C)C(=O)O[C@@H](C)[C@@H](c2ccc(C)cc2C)C2CCC2)c1O` [Compound 149], the pest or weed control at 100 ppm was less than 80% in the assay on Zymoseptoria tritici (setting [1]), more than 80% in the assay on Zymoseptoria tritici (setting [2]), less than 80% in the assay with Puccinia triticina (setting [3]) and less than 80% in the assay on Puccinia triticina (setting [4]).

As to `COc1ccnc(C(=O)N[C@@H](C)C(=O)OC(C)[C@H](c2ccccc2)C2CCCC2)c1O` (some centres unmarked) [Compound 113], the pest or weed control at 100 ppm in the assay on Zymoseptoria tritici (setting [1]), in the assay with Zymoseptoria tritici (setting [2]), in the assay on Puccinia triticina (setting [3]) and with Puccinia triticina (setting [4]) was more than 80% each time.

As for `COc1ccc([C@H](C(C)C)[C@H](C)OC(=O)[C@H](C)NC(=O)c2nccc(OC)c2OC(C)=O)c(OC)c1` [Compound 262], the pest or weed control at 121.5 g/ha in the assay on Zymoseptoria tritici (setting [5]) was less than 80%; with Zymoseptoria tritici (setting [6]), less than 80%; in the assay with Puccinia triticina (setting [7]) it was more than 80%; with Puccinia triticina (setting [8]), less than 80%.

Take `COc1ccnc(C(=O)N[C@@H](C)C(=O)O[C@@H](C)[C@H](c2ccc(C)cc2)C2CC2)c1OCOC(C)=O` [Compound 167]: the pest or weed control at 121.5 g/ha in the assay with Zymoseptoria tritici (setting [5]), with Zymoseptoria tritici (setting [6]), in the assay with Puccinia triticina (setting [7]) and in the assay on Puccinia triticina (setting [8]) was more than 80% throughout.

With `COCCC(=O)Oc1c(OC)ccnc1C(=O)N[C@@H](C)C(=O)O[C@@H](C)[C@H](c1ccc(OC)c(F)c1)C(C)C` [Compound 248], the pest or weed control at 121.5 g/ha in the assay with Zymoseptoria tritici (setting [5]), in the assay on Puccinia triticina (setting [7]) and in the assay with Puccinia triticina (setting [8]) was less than 80% each time.

With `COc1ccnc(C(=O)N[C@@H](C)C(=O)O[C@@H](C)[C@H](c2cccc(C)c2)C(C)C)c1OC(C)=O` [Compound 391], the pest or weed control at 121.5 g/ha in the assay with Zymoseptoria tritici (24 h, 1 Day Protectant, wheat leaf blotch, read-out: SEPTTR 1DP disease control, LV activity) is less than 80%; with Zymoseptoria tritici (72 h, 3 Day Curative, wheat leaf blotch, read-out: SEPTTR 3DC disease control, LV activity) it was less than 80%; with Puccinia triticina (24 h, 1 Day Protectant, wheat brown rust, read-out: PUCCRT 1DP disease control, LV activity) it was more than 80%; with Puccinia triticina (72 h, 3 Day Curative, wheat brown rust, read-out: PUCCRT 3DC disease control, LV activity) it was less than 80%.

Consider `COc1ccc([C@H](C(C)C)[C@H](C)OC(=O)[C@H](C)NC(=O)c2nccc(OC)c2OCOC(C)=O)c(F)c1` [Compound 257], for which the pest or weed control at 121.5 g/ha in the assay on Zymoseptoria tritici (setting [5]), in the assay with Puccinia triticina (setting [7]) and in the assay with Puccinia triticina (setting [8]) was more than 80% each time.

For the compound `CCC(C)[C@H](c1ccc(F)cc1OC)[C@H](C)OC(=O)[C@H](C)NC(=O)c1nccc(OC)c1O` (some centres unmarked) [Compound 141], the pest or weed control at 100 ppm with Zymoseptoria tritici (setting [1]) was less than 0%; in the assay with Zymoseptoria tritici (setting [2]), more than 80%; in the assay with Puccinia triticina (setting [3]) it was less than 80%; in the assay on Puccinia triticina (setting [4]), more than 80%.
